Results taken from US20040077640A1 (priority 2000, published 2004).
Structures can show the parent of a compound that is named as a salt.

SMILES	melting point
Fc1ccc(-c2c[nH]c(C3CCCCN3)n2)cc1 (stereo not drawn) (as salt: hydrochloride)	222 to 223 °C
CCCCOC(=O)N1CCC(c2nc(-c3ccc(OC)cc3)c[nH]2)CC1 [Example 26, butyl 4-[4-(4-methoxyphenyl)-1H-imidazol-2-yl]piperidine-1-carboxylate]	48 to 50 °C
CCCCOC(=O)N1CCCCC1c1nc(-c2ccc(F)cc2)c[nH]1 (stereo not drawn)	157.4 °C
CCCCOC(=O)N1CCC(c2nc(-c3ccc(C(C)(C)C)cc3)c[nH]2)CC1 [Example 13, butyl 4-[4-(4-tert-butylphenyl)-1H-imidazol-2-yl]piperidine-1-carboxylate]	98 to 100 °C
CCCCOC(=O)N1CCC(c2nc(-c3ccc(-c4ccccc4)cc3)c[nH]2)CC1 [Example 20, butyl 4-[4-(1,1′-biphenyl-4-yl)-1H-imidazol-2-yl]piperidine-1-carboxylate]	73 to 74 °C
CCCCOC(=O)N1CCCC(c2nc(-c3ccc(-c4ccccc4)cc3)c[nH]2)C1 (stereo not drawn) [Example 24, butyl 3-[4-(1,1′-biphenyl-4-yl)-1H-imidazol-2-yl]piperidine-1-carboxylate]	116 to 117 °C
c1ccc(CN2CCC(c3nc(-c4ccc(-c5ccccc5)cc4)c[nH]3)CC2)cc1 [Example 12, 1-benzyl4-[4-(1,1′-biphenyl-4-yl)-1H-imidazol-2-yl]piperidine]	110 to 112 °C
CC(C)(C)OC(=O)N1CCC(c2nc(-c3ccc(F)cc3)c[nH]2)CC1	180 to 182 °C
Fc1ccc(-c2c[nH]c(C3CCCCN3Cc3ccccc3)n2)cc1 (stereo not drawn) [Example 17, 1-benzyl-2-[4-(4-fluorophenyl)-1H-imidazol-2-yl]piperidine]	181.6 °C
Fc1ccc(-c2c[nH]c(C3CCNCC3)n2)cc1 (as salt: hydrochloride)	> 260 °C
COc1ccc(-c2c[nH]c(C3CCNCC3)n2)cc1 (as salt: hydrochloride)	272 to 273 °C
CCCCOC(=O)N1CCCC(c2nc(-c3ccc(F)cc3)c[nH]2)C1 (stereo not drawn)	96.5 °C
c1ccc(-c2ccc(-c3c[nH]c(C4CCCNC4)n3)cc2)cc1 (stereo not drawn) (as salt: hydrochloride) [Example 22, 3-[4-(1,1′-biphenyl-4-yl)-1H-imidazol-2-yl]piperidine]	226 to 227 °C
CCCCCCN1CCC(c2nc(-c3ccc(-c4ccccc4)cc3)c[nH]2)CC1 [Example 19, 4-[4-(1,1′-biphenyl-4-yl)-1H-imidazol-2-yl]-1-hexylpiperidine]	138 to 139 °C
CCCCOC(=O)N1CCCCC1c1nc(-c2ccc(-c3ccccc3)cc2)c[nH]1 (stereo not drawn) [Example 23, butyl 2-[4-(1,1′-biphenyl-4-yl)-1H-imidazol-2-yl]piperidine-1-carboxylate]	166 to 167 °C
